Laboratory results from US20200216416A1, “QUINOLINE COMPOUNDS AS INHIBITORS OF TAM AND MET KINASES” (Array BioPharma Inc., priority 2019, published 2020).
Where two headings read alike, the source gives them in different places.

Tests used:
[1] = molecular target: T1, MET (wt) GST-tagged recombinant human MET kinase domain (Homo sapiens, UniProt P08581); experiment: c-Met Enzyme Assay, wild type (LanthaScreen Eu Kinase Binding); conditions: averaged IC50; MET (wt) 10 nM; 60-minute incubation at 22° C.; read-out: SigChem WT IC50
T1 construct: GST-tagged recombinant human MET kinase domain; purchased Signal Chem
Procedure: (§1) The affinity of compound binding to wild type and mutant human MET kinases was measured using Invitrogen's LanthaScreen™ Eu Kinase Binding technology. Briefly, GST-tagged recombinant human MET kinase domain from Signal Chem (see Table 8 below for concentration in assay) was incubated with 50 nM Alexa-Fluor® Tracer 236 (Invitrogen Cat No. PR9078A) and 2 nM Europium-anti-GST (Invitrogen Cat. No. A15116) along with test compound in a buffer consisting of 25 mM HEPES, pH 7.4, 10 mM MgCl2, 0.01% Triton X-100, 1mM DTT, and 2% DMSO. Compounds were typically prepared in a three-fold serial dilution in DMSO and added to the assay to give the appropriate final concentration. After a 60-minute incubation at 22° C., the reaction was measured using a PerkinElmer EnVision multimode plate reader via TR-FRET dual wavelength detection, and the percent of control (POC) calculated using a ratiometric emission factor. […] The POC values were fit to a 4 parameter logistic curve and the IC50 value is point where the curve crosses 50 POC.

MDR1 (P-gp) = molecular target: T2, MDR1 (P-gp) (Homo sapiens, UniProt P08183); experiment: MDR1 LLC-PK1 permeability assay; format: in vitro ADME; conditions: pig, MDR1 transfected LLC-PK1 cells; for Papp at 2 h, 1 μM: permeability coefficient (Papp)
T2 construct: expressed in transfected cells; host or cells: LLC-PK1
Procedure: MDR1 transfected LLC-PK1 cells were cultured and plated according to manufacturer's recommendations with the exception that the passage media contained only 2% fetal bovine serum to extend passage time out to seven days.
Both positive and negative controls were used to assess functionality of P-gp efflux in the assay. Stock solutions for assay controls and the test article were prepared in DMSO for final test concentrations of 10 and 1 μM, respectively. Final organic concentration in the assay was 1%. All dosing solutions contained 10 μM lucifer yellow to monitor LLC-PK1 cell monolayer integrity.
For the apical to basolateral determination (A to B), 75 μL of the test article in transport buffer were added to the apical side of the individual transwells and 250 μL of basolateral media, without compound or lucifer yellow, were added to each well. For the basolateral to apical determination (B to A), 250 μL of test article in transport buffer were added to each well and 75 μL transport buffer, without compound or lucifer yellow, were added to each transwell. All tests were performed in triplicate, and each compound was tested for both apical to basolateral and basolateral to apical transport. The plates were incubated for 2 hours on a Lab-Line Instruments Titer Orbital Shaker (VWR, West Chester, Pa.) at 50 rpm and 37° C. with 5% CO2. All culture plates were removed from the incubator and 50 μL of media were removed from the apical and basolateral portion of each well and added to 150 μL of 1 μM labetalol in 2:1 acetonitrile (acetonitrile): H2O, v/v.
The plates were read using a Molecular Devices (Sunnyvale, Calif.) Gemini Fluorometer to evaluate the lucifer yellow concentrations at excitation/emission wavelengths of 425/535 nm. These values were accepted when found to be below 2% for apical to basolateral and 5% basolateral to apical flux across the MDR1-transfected LLC-PK1-transfected cell monolayers. The plates were sealed and the contents of each well analyzed by LC-MS/MS. The compound concentrations were determined from the ratio of the peak areas of the compound to the internal standard (labetalol) in comparison to the dosing solution.
The LC-MS/MS system was comprised of an HTS-PAL autosampler (Leap Technologies, Carrboro, N.C.), an HP1200 HPLC (Agilent, Palo Alto, Calif.), and a MDS Sciex 4000 Q Trap system (Applied Biosystems, Foster City, Calif.). […] The total run time, including re-equilibration, for a single injection was 1.2 minutes. Mass spectrometric detection of the analytes was accomplished using the ion spray positive mode. Analyte responses were measured by multiple reaction monitoring (MRM) of transitions unique to each compound (the protonated precursor ion and selected product ions for each test article and m/z 329 to m/z 162 for labetalol, the internal standard).
The permeability coefficient (Papp) is calculated from the following equation: […]
where Cd, V, t and C0 are the detected concentration (μM), the volume on the dosing side (mL), the incubation time (s) and the initial dosing concentration (μM), respectively. The calculations for Papp were made for each replicate and then averaged. In this assay, a compound is defined has having high permeability if the permeability is greater than 8×10^−6 cm/sec, a compound is defined has having medium permeability if the permeability is from 2×10^−6 cm/sec to 8×10^−6 cm/sec, and a compound is defined has having low permeability if the permeability is less than 2×10^−6 cm/sec.
An efflux ratio was calculated from the mean apical to basolateral (A-B) Papp data and basolateral to apical (B-A) Papp data:
Efflux ratio=Papp(B−A)/Papp(A−B)

human MET kinase D1228N = molecular target: T3, human MET kinase D1228N (Homo sapiens, UniProt P08581, D1228N); experiment: c-Met Enzyme Assay, D1228N mutant; format: binding; conditions: averaged IC50; D1228N 2 nM; 60-minute incubation at 22° C.; read-out: D1228 N IC50
T3 construct: GST-tagged recombinant human MET kinase domain; purchased Signal Chem
Procedure: as §1

[2] = LLC-PK1, Papp(B−A)/Papp(A−B), test article 1 μM, 2 hours, 37° C., read-out: Efflux ratio
[3] = LLC-PK1, efflux ratio = Papp(B-A)/Papp(A-B), read-out: MDR1 Pe Ratio

T3 sequence (P08581 1078-1345 D1228N): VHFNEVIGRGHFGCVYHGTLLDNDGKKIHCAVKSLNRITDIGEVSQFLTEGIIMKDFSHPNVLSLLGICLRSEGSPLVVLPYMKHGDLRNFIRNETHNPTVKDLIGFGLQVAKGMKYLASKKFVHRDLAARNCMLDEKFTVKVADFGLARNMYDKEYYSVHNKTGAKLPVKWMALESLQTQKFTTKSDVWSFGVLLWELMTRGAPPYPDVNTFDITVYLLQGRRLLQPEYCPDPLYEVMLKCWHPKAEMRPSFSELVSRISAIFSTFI
T1 sequence (P08581 1078-1345 limits assumed): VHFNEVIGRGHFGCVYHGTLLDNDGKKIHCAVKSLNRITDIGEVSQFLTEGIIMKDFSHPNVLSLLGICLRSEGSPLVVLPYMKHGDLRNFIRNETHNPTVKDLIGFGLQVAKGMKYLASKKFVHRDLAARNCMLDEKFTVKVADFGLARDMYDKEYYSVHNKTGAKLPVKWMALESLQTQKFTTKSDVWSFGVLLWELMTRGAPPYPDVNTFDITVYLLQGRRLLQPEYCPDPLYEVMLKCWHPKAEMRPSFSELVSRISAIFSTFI
T2 sequence (P08183 whole entry): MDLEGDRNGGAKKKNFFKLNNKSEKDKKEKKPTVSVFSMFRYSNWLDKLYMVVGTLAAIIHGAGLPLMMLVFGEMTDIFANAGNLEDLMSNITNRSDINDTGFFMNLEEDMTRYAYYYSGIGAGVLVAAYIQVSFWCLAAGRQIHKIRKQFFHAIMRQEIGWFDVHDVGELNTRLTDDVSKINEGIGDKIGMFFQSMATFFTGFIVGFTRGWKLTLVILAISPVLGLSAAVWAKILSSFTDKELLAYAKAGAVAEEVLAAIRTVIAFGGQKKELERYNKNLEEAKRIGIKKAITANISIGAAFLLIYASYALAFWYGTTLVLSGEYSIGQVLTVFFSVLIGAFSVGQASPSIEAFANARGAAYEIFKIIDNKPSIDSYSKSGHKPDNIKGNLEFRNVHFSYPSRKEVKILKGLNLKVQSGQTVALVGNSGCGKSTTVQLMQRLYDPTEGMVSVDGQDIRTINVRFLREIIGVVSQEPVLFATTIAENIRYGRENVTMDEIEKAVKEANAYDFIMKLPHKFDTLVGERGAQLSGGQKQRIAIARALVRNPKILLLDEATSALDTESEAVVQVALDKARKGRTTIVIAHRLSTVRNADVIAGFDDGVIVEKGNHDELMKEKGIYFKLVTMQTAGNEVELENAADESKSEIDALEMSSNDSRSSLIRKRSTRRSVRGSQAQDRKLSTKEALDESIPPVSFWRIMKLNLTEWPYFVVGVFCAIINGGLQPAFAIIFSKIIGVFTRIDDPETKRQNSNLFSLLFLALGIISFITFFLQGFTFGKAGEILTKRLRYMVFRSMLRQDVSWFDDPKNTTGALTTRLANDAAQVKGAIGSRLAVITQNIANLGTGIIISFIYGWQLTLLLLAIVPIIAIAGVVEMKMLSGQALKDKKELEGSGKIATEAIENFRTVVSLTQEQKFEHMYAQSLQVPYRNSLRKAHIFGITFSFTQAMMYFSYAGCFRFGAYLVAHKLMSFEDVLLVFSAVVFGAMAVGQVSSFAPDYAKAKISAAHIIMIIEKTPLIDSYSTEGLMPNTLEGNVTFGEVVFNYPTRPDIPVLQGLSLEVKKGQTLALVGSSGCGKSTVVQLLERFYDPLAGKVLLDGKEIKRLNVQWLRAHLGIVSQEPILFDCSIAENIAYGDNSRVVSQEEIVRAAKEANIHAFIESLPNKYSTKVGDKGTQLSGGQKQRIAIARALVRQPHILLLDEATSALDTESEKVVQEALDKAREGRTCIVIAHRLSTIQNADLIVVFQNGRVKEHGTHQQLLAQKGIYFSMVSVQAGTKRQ

| Compound | IC50 [1] [nM] | efflux ratio at 2 h, 1 μM (MDR1 (P-gp); [2]) | efflux ratio at 2 h, 1 μM (MDR1 (P-gp); [3]) | Papp at 2 h, 1 μM (MDR1 (P-gp)) [×10⁻⁶ cm/s] | IC50 (human MET kinase D1228N) [nM] |
| --- | --- | --- | --- | --- | --- |
| CCC(CC)n1cc(C(=O)Nc2ccc(Oc3ccnc4cc(OC)c(OC)cc34)cn2)c(=O)c(-c2ccc(F)cc2F)c1 [Example 16, 5-(2,4-difluorophenyl)-N-(5-((6,7-dimethoxyquinolin-4yl)oxy)pyridin-2-yl)-4-oxo-1-(pentan-3-yl)-1,4-dihydropyridine-3-carboxamide] | 6.1 | 3.5 | 2 | 4 | 8.1 |
| CCCC(CCC)n1cc(C(=O)Nc2ccc(Oc3ccnc4cc(OC)c(OC)cc34)cn2)c(=O)c(-c2ccc(F)cc2F)c1 [Example 17, 5-(2,4-difluorophenyl)-N-(5-((6,7-dimethoxyquinolin-4yl)oxy)pyridin-2-yl)-1-(heptan-4-yl)-4-oxo-1,4-dihydropyridine-3-carboxamide] | 17.8 | – | 24 | < 1 | 25 |
| COc1cc2nccc(Oc3ccc(NC(=O)c4cn(C(C)C)cc(-c5ccc(F)cc5Cl)c4=O)nc3)c2cc1OC [Example 18, 5-(2-chloro-4-fluorophenyl)-N-(5-((6,7-dimethoxyquinolin-4-yl)oxy)pyridin-2-yl)-1-isopropyl-4-oxo-1,4-dihydropyridine-3-carboxamide] | 2.7 | 3.5 | 2.1 | 11 | 4.7 |
| COc1cc2nccc(Oc3ccc(NC(=O)c4cn(C(C)C)cc(-c5ccc(F)cc5C)c4=O)nc3)c2cc1OC [Example 19, N-(5-((6,7-dimethoxyquinolin-4yl)oxy)pyridin-2-yl)-5-(4-fluoro-2-methylphenyl)-1-isopropyl-4-oxo-1,4-dihydropyridine-3-carboxamide] | 1.8 | 3.5 | 2.8 | 11 | 3.6 |
| COc1cc(-c2cn(C(C)C)cc(C(=O)Nc3ccc(Oc4ccnc5cc(OC)c(OC)cc45)cn3)c2=O)ccc1F [Example 20, N-(5-((6,7-dimethoxyquinolin-4yl)oxy)pyridin-2-yl)-5-(4-fluoro-3-methoxyphenyl)-1-isopropyl-4-oxo-1,4-dihydropyridine-3-carboxamide] | 5.2 | – | 3.6 | 9 | 10.4 |
| COc1cc2nccc(Oc3ccc(NC(=O)c4cn(C(C)C)cc(-c5ccc(F)c(Cl)c5)c4=O)nc3)c2cc1OC [Example 21, 5-(3-chloro-4-fluorophenyl)-N-(5-((6,7-dimethoxyquinolin-4-yl)oxy)pyridin-2-yl)-1-isopropyl-4-oxo-1,4-dihydropyridine-3-carboxamide] | 13.5 | 3.5 | 1.3 | 1.2 | 31 |
| CNC(=O)Cn1cc(C(=O)Nc2ccc(Oc3ccnc4cc(OC)c(OC)cc34)cn2)c(=O)c(-c2ccc(F)cc2)c1 [Example 22] | 1.8 | – | 80 | 2 | 6.5 |
| COc1cc2nccc(Oc3ccc(NC(=O)c4cn(CC(=O)N(C)C)cc(-c5ccc(F)cc5)c4=O)nc3)c2cc1OC [Example 23, N-(5-((6,7-dimethoxyquinolin-4yl)oxy)pyridin-2-yl)-1-(2-(dimethylamino)-2-oxoethyl)-5-(4-fluorophenyl)-4-oxo-1,4-dihydropyridine-3-carboxamide] | 2.8 | – | 105 | 6 | 13.5 |
| COc1cc2nccc(Oc3ccc(NC(=O)c4cn(CC(=O)N(C)C)cc(-c5ccc(F)c(F)c5)c4=O)nc3)c2cc1OC [Example 24, 5-(3,4-difluorophenyl)-N-(5-((6,7-dimethoxyquinolin-4-yl)oxy)pyridin-2-yl)-1-(2-(dimethylamino)-2-oxoethyl)-4-oxo-1,4-dihydropyridine-3-carboxamide] | 7.8 | – | 210 | 9.5 | 36.7 |
| COc1cc2nccc(Oc3ccc(NC(=O)c4cn(CC(=O)N(C)C)cc(-c5ccc(Cl)cc5)c4=O)nc3)c2cc1OC [Example 25] | 8.2 | – | 136 | 6.4 | 37.8 |
| COc1cc2nccc(Oc3ccc(NC(=O)c4c[nH]cc(-c5ccc(F)cc5)c4=O)nc3)c2cc1OC [Example 26, N-(5-((6,7-dimethoxyquinolin-4yl)oxy)pyridin-2-yl)-5-(4-fluorophenyl)-4-oxo-1,4-dihydropyridine-3-carboxamide] | 6 | – | 44 | 3 | 19.2 |
| COc1cc2nccc(Oc3ccc(NC(=O)c4cn(C(C)C)c(C)c(-c5ccc(F)cc5)c4=O)nc3)c2cc1OC [Example 27, N-(5-((6,7-dimethoxyquinolin-4yl)oxy)pyridin-2-yl)-5-(4-fluorophenyl)-1-isopropyl-6-methyl-4-oxo-1,4-dihydropyridine-3-carboxamide] | 1.8 | – | 5.5 | 16 | 2 |
| COc1cc2nccc(Oc3ccc(NC(=O)c4cn(C(C)C)c(C)c(-c5ccc(F)c(F)c5)c4=O)nc3)c2cc1OC [Example 28, 5-(3,4-difluorophenyl)-N-(5-((6,7-dimethoxyquinolin-4yl)oxy)pyridin-2-yl)-1-isopropyl-6-methyl-4-oxo-1,4-dihydropyridine-3-carboxamide] | 2 | 3.5 | 2.8 | 15 | 3.6 |
| CCc1c(-c2ccc(F)cc2)c(=O)c(C(=O)Nc2ccc(Oc3ccnc4cc(OC)c(OC)cc34)cn2)cn1C(C)C [Example 29, N-(5-((6,7-dimethoxyquinolin-4yl)oxy)pyridin-2-yl)-6-ethyl-5-(4-fluorophenyl)-1-isopropyl-4-oxo-1,4-dihydropyridine-3-carboxamide] | 4.3 | – | 3.6 | 10 | 3.1 |
| COc1ccc(-c2cn(C(C)C)cc(C(=O)Nc3ccc(Oc4ccnc5cc(OC)c(OC)cc45)cn3)c2=O)cc1 [Example 30, N-(5-((6,7-dimethoxyquinolin-4yl)oxy)pyridin-2-yl)-1-isopropyl-5-(4-methoxyphenyl)-4-oxo-1,4-dihydropyridine-3-carboxamide] | 39.7 | 3.5 | 3.1 | 7 | 100 |
